One assay addresses T1, Zcchc11 enzyme (Homo sapiens, UniProt Q5TAX3).
T1 construct: made in house; host or cells: HEK293 cells (Zcchc11); E. coli Rosetta II (LIN28A)
T1 sequence (Q5TAX3 212-1420): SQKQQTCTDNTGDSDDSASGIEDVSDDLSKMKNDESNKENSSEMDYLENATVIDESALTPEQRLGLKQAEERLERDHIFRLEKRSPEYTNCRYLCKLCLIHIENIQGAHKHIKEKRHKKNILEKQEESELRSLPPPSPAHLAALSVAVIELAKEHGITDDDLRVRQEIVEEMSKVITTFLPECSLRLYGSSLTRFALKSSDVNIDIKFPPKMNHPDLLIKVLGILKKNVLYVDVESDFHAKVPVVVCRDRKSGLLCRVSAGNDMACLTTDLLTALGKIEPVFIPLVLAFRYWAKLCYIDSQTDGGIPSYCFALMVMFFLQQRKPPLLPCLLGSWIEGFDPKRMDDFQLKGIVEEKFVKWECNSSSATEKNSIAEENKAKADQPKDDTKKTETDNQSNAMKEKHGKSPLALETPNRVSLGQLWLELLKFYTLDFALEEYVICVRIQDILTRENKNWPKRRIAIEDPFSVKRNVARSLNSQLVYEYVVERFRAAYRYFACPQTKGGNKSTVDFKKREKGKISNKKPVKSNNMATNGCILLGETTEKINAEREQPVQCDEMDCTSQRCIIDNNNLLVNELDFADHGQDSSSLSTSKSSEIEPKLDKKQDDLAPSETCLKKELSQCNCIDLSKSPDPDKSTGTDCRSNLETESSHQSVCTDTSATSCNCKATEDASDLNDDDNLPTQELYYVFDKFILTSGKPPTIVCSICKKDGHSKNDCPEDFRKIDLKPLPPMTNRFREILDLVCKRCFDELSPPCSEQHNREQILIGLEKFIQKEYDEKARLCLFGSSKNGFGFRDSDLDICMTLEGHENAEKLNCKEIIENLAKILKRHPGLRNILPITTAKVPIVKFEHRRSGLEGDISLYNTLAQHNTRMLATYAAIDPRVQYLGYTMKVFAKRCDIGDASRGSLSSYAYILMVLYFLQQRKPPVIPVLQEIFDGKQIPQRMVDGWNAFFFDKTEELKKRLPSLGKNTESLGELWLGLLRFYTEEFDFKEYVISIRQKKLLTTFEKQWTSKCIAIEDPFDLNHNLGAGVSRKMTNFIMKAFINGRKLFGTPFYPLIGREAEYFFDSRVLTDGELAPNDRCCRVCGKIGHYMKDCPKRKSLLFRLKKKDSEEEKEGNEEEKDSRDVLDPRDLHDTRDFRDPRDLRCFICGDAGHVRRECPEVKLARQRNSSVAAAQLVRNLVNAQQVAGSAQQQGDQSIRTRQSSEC
Kind of assay: TUTase assay (Zcchc11 assay, Lin28a-dependent polyuridylation of pre-let-7). Type of assay: biochemical. Conditions: LIN28A 10 nM, Zcchc11 0.2 nM, 5′-fluorescein pre-let-7 miRNA 2 nM, UTP 5 uM, room temperature, 30 minutes pre-incubation; read-out: Potency Lin28a-dep Z11 IC50. An outline of the steps: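 HEK293-expressed human Zcchc11 (residues 212-1420, 0.2 nM) with 10 nM LIN28A and 2 nM 5′-fluorescein pre-let-7, preincubated 30 min at room temperature, pH 7.3. Started with 5 uM UTP; poly(U) tails quenched by 3′-rhodamine A20 probe, read kinetically. IC50 from early-rate four-parameter fit; no-UTP wells define 0%.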
Broadly, the IC50 is the concentration that inhibits the measured activity by half. In the case of `CC1CCN(c2cc3c(cc2Cl)c(=O)c(C(=O)O)cn3-c2ccnc(N)c2)[C@H]1COc1nc(N(C)C)ccc1Cl` (stereo partly drawn) [Example 65, 1-(2-aminopyridin-4-yl)-6-chloro-7-[(2R)-2-({[3-chloro-6-(dimethylamino)pyridin-2-yl]oxy}methyl)-3-methylpyrrolidin-1-yl]-4-oxoquinoline-3-carboxylic acid], the IC50 was at most 1000 nM. Same read-out and setting: to `Cc1cccnc1OC[C@H]1CCCN1c1cc2c(cc1F)c(=O)c(C(=O)O)cn2-c1cnccn1` [Example 15, (R)-6-fluoro-7-(2-(((3-methylpyridin-2-yl)oxy)methyl)pyrrolidin-1-yl)-4-oxo-1-(pyrazin-2-yl)-1,4-dihydroquinoline-3-carboxylic acid] belongs at most 1000 nM.

Staying with this assay, now noted: Lin28a-dependent Zcchc11 (Z11) TUTase activity; read-out: Potency Lin28a-dep Z11 IC50.
Take `O=C(O)c1cn(-c2cnc3c(n2)COC3)c2cc(N3CCC[C@@H]3COc3ncccc3Cl)c(Cl)cc2c1=O` (racemic) [Compound 182, rac-(R)-6-chloro-7-(2-(((3-chloropyridin-2-yl)oxy)methyl)pyrrolidin-1-yl)-1-(5,7-dihydrofuro [3,4-b]pyrazin-2-yl)-4-oxo-1,4-dihydro-quinoline-3-carboxylic acid]: the IC50 is at most 1000 nM. On the same count and under the same terms, to `O=C(O)c1cn(-c2cnccn2)c2cc(N3CCC[C@@H]3COc3ncccc3Cl)c(F)cc2c1=O` [Compound 240, 7-[(2R)-2-[[(3-chloropyridin-2-yl)oxy]methyl]pyrrolidin-1-yl]-6-fluoro-4-oxo-1-(pyrazin-2-yl)quinoline-3-carboxylic acid] belongs at most 1000 nM; to `COc1ccc(-n2cc(C(=O)O)c(=O)c3cc(F)c(N4CCC[C@@H]4COc4ccccn4)cc32)cc1` [Compound 147, (R)-6-fluoro-1-(4-methoxy-phenyl)-4-oxo-7-(2-((pyridin-2-yloxy)methyl)pyrrolidin-1-yl)-1,4-dihydro-quinoline-3-carboxylic acid], at most 1000 nM; to `COc1ccc(F)c(-n2cc(C(=O)O)c(=O)c3cc(F)c(N4CCC[C@@H]4COc4ccccn4)cc32)c1` [Compound 158, (R)-6-fluoro-1-(2-fluoro-5-methoxy-phenyl)-4-oxo-7-(2-((pyridin-2-yloxy)methyl)pyrrolidin-1-yl)-1,4-dihydro-quinoline-3-carboxylic acid], 1000 to 10000 nM. On the same count and under the same terms, next, `Cc1cccnc1OC[C@H]1CCCN1c1cc2c(cc1F)c(=O)c(C(=O)O)cn2-c1ccc(O)cc1F` [Compound 101, (R)-6-fluoro-1-(2-fluoro-4-hydroxy-phenyl)-7-(2-(((3-methyl-pyridin-2-yl)oxy)methyl)pyrrolidin-1-yl)-4-oxo-1,4-dihydro-quinoline-3-carboxylic acid]: at most 1000 nM. Take `CN(C)C1CN(c2ccc(-n3cc(C(=O)O)c(=O)c4cc(Cl)c(N5[C@@H](COc6nc(N)ccc6Cl)C[C@H]6C[C@H]65)cc43)cn2)C1` [Compound 339, 7-[(3R)-3-{[(6 Amino-3-chloropyridin-2-yl)oxy]methyl}-2-azabicyclo [3.1.0]hexan-2-yl]-6-chloro-1-{6-[3-(dimethyl-amino)azetidin-1-yl]pyridin-3-yl}-4-oxoquinoline-3-carboxylic acid]: the IC50 is at most 1000 nM.

On to `Cn1cc(-n2cc(C(=O)O)c(=O)c3cc(C#N)c(N4CCC[C@@H]4COc4ncccc4F)nc32)cn1` (racemic) [Compound 183, rac-(R)-6-cyano-7-(2-(((3-fluoropyridin-2-yl)oxy)methyl)pyrrolidin-1-yl)-1-(1-methyl-1H-pyrazol-4-yl)-4-oxo-1,4-dihydro-1,8-naphthyridine-3-carboxylic acid], for which the IC50 is 1000 to 10000 nM. As to `CC1CCN(c2cc3c(cc2Cl)c(=O)c(C(=O)O)cn3-c2ccc(N3CC(N(C)C)C3)nc2)C1COc1nc(N(C)C)ccc1Cl` (centres unmarked) [Compound 332, 6-Chloro-7-[2-({[3-chloro-6-(dimethyl-amino)pyridin-2-yl]oxy}methyl)-3-methyl-pyrrolidin-1-yl]-1-{6-[3-(dimethyl-amino)azetidin-1-yl]pyridin-3-yl}-4-oxoquinoline-3-carboxylic acid], the IC50 was at most 1000 nM. In the case of `CN(C)C1CN(c2ccc(-n3cc(C(=O)O)c(=O)c4cc(Cl)c(N5CC(c6ncccn6)C[C@@H]5COc5ncccc5Cl)cc43)cn2)C1` (stereo partly drawn) [Compound 346, 6-chloro-7-((2R)-2-(((3-chloropyridin-2-yl)oxy)methyl)-4-(pyrimidin-2-yl)pyrrolidin-1-yl)-1-(6-(3-(dimethyl-amino)azetidin-1-yl)pyridin-3-yl)-4-oxo-1,4-dihydro-quinoline-3-carboxylic acid], the concentration for half-maximal inhibition (IC50) is at most 1000 nM.

Still in this assay, the particulars now being: Lin28a-dependent Zcchc11 (Z11) TUTase assay; read-out: Potency Lin28a-dep Z11 IC50.
Consider `CN(C)C1CN(c2ccc(-n3cc(C(=O)O)c(=O)c4cc(F)c(N5CCC[C@@H]5COc5ncccc5Cl)c(F)c43)cn2)C1` [Example 613], for which the IC50 is at most 1000 nM. In the case of `Cc1cc(O)ccc1-n1cc(C(=O)O)c(=O)c2cc(F)c(N3CCC[C@@H]3COc3ccccn3)cc21` [Example 396, (R)-6-fluoro-1-(4-hydroxy-2-methylphenyl)-4-oxo-7-(2-((pyridin-2-yloxy)methyl)pyrrolidin-1-yl)-1,4-dihydroquinoline-3-carboxylic acid], the IC50 lay within 1000 to 10000 nM.

Consider `O=C(O)c1cn(C2CC2)c2cc(N3CCC[C@@H]3COc3ccccn3)c(F)cc2c1=O` [Example 447, (R)-1-cyclopropyl-6-fluoro-4-oxo-7-(2-((pyridin-2-yloxy)methyl)pyrrolidin-1-yl)-1,4-dihydroquinoline-3-carboxylic acid], for which the IC50 was in the range of 1000 to 10000 nM. Still for that read-out and setting: next, `O=C(O)c1cn(-c2ccc(F)cn2)c2cc(N3CCC[C@@H]3COc3ccccn3)c(F)cc2c1=O` [Example 380, (R)-6-fluoro-1-(5-fluoropyridin-2-yl)-4-oxo-7-(2-((pyridin-2-yloxy)methyl)pyrrolidin-1-yl)-1,4-dihydroquinoline-3-carboxylic acid]: 1000 to 10000 nM; `COc1ccc(Cl)c(OC[C@H]2CC3CC3N2c2cc3c(cc2Cl)c(=O)c(C(=O)O)cn3-c2ccc(N3CC(N(C)C)C3)nc2)n1` (stereo partly drawn) [Example 654, 6-chloro-7-((3R)-3-(((3-chloro-6-methoxypyridin-2-yl)oxy)methyl)-2-azabicyclo[3.1.0]hexan-2-yl)-1-(6-(3-(dimethylamino)azetidin-1-yl)pyridin-3-yl)-4-oxo-1,4-dihydroquinoline-3-carboxylic acid]: at most 1000 nM; `COc1cc2c(=O)c(C(=O)O)cn(-c3ccc(N4CC(N(C)C)C4)nc3)c2cc1N1CCC[C@@H]1COc1ncccc1Cl` [Example 524, (R)-7-(2-(((3-chloropyridin-2-yl)oxy)methyl)pyrrolidin-1-yl)-1-(6-(3-(dimethylamino)azetidin-1-yl)pyridin-3-yl)-6-methoxy-4-oxo-1,4-dihydroquinoline-3-carboxylic acid]: 1000 to 10000 nM.

As for `CN(C)C1CN(c2ccc(-n3cc(C(=O)O)c(=O)c4cc(Br)c(N5CCC[C@@H]5COc5ncccc5Cl)cc43)cn2)C1` [Example 537, (R)-6-bromo-7-(2-(((3-chloropyridin-2-yl)oxy)methyl)pyrrolidin-1-yl)-1-(6-(3-(dimethylamino)azetidin-1-yl)pyridin-3-yl)-4-oxo-1,4-dihydroquinoline-3-carboxylic acid], the IC50 was at most 1000 nM. Consider `CN(C)C1CN(c2ncc(-n3cc(C(=O)O)c(=O)c4cc(Cl)c(N5CCC[C@]5(C)COc5ncccc5Cl)nc43)cn2)C1` [Example 622, (R)-6-chloro-7-(2-(((3-chloropyridin-2-yl)oxy)methyl)-2-methylpyrrolidin-1-yl)-1-(2-(3-(dimethylamino)azetidin-1-yl)pyrimidin-5-yl)-4-oxo-1,4-dihydro-1,8-naphthyridine-3-carboxylic acid], for which the IC50 was in the range of 1000 to 10000 nM. Take `COc1cc2c(=O)c(C(=O)O)cn(-c3cnccn3)c2cc1N1CCC[C@@H]1COc1ncccc1Cl` [Example 512, (R)-7-(2-(((3-chloropyridin-2-yl)oxy)methyl)pyrrolidin-1-yl)-6-methoxy-4-oxo-1-(pyrazin-2-yl)-1,4-dihydroquinoline-3-carboxylic acid]: the IC50 is above 50000 nM.

The record behind these values is patent US12662491B2 (Redona Therapeutics, Inc., priority 2020, dated 2026).
